Among the test systems are OVCAR-5 ovarian; HL-60(TB) leukemia; M19-MEL melanoma; HCT-116 colon; SR leukemia; MCF7 breast; T-47D breast; PC-3 prostate.
Assay in all cases: growth of human tumour cells (NCI), 48 h

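48-hour exposure; five concentrations; linearly interpolated endpoints. The concentration for 50% growth inhibition is given as GI50. TGI: total growth inhibition.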 Where a SMILES comes first, the peptide text is derived from it. [ ]: non-standard residue; d: D form. Ac5c = NC1(C(=O)O)CCCC1

For `O=C1c2ccccc2-c2cccc3ccc(Cc4ccc5ccccc5c4)c1c23`, the TGI with OVCAR-5 ovarian, in the test with HL-60(TB) leukemia, in the test on M19-MEL melanoma and in the test with HCT-116 colon was more than 100 µM throughout.

For `CC1C[C@@]2(c3ccccc3)C(=O)CCC[C@H]2N1` (stereo not given in full), the TGI in the test on OVCAR-5 ovarian, in the test with SR leukemia, with HL-60(TB) leukemia, with M19-MEL melanoma and in the test on HCT-116 colon was more than 100 µM in each case.

As to `COc1ccc(CN(C)c2ccc(CO)c(Cl)c2)cc1`, the GI50 with OVCAR-5 ovarian was 0.439 µM; in the test with SR leukemia, 27 µM; with HL-60(TB) leukemia it was 17.7 µM; in the test with MCF7 breast, 0.892 µM; with T-47D breast, 0.513 µM; in the test on PC-3 prostate, 20.7 µM. In addition, the GI50 in the test on HCT-116 colon is 0.368 µM. In addition, the TGI is 2.9 µM in the test with OVCAR-5 ovarian; more than 100 µM with SR leukemia; 64.8 µM in the test with HL-60(TB) leukemia; more than 64.9 µM in the test on MCF7 breast; 3.82 µM with T-47D breast; more than 100 µM in the test with PC-3 prostate. Moreover, the TGI with HCT-116 colon was 14.2 µM.

As to `COc1ccc(/C=N\NC(=O)CN2CCN(c3cc4c(cc3F)c(=O)c(C(=O)N/N=C/c3ccc(OC)c(OC)c3)cn4C3CC3)CC2)cc1OC`, the GI50 was 2.39 µM in the test with OVCAR-5 ovarian; 3.11 µM in the test on SR leukemia; 3.36 µM with HL-60(TB) leukemia; 3.21 µM in the test with MCF7 breast; 2.55 µM with T-47D breast; 2.76 µM in the test with PC-3 prostate. For the same compound, the GI50 in the test on HCT-116 colon was 3.15 µM. The TGI in the test with OVCAR-5 ovarian was 6.94 µM; with SR leukemia, more than 100 µM; in the test on HL-60(TB) leukemia, 18.2 µM; with MCF7 breast it was more than 100 µM; with T-47D breast, 8.78 µM; with PC-3 prostate, 9.53 µM. In the test with HCT-116 colon, this compound showed a TGI of 11.4 µM.

As for `COc1cc(/C=C(\C#N)C(=O)c2ccccc2)ccc1OCc1ccccc1`, the TGI with OVCAR-5 ovarian, in the test with SR leukemia, with HL-60(TB) leukemia, in the test on M19-MEL melanoma and in the test on HCT-116 colon was more than 100 µM throughout.

On to `O=c1ccn(C2OC(CO)C(O)C2F)c(=O)[nH]1` (stereo not given), for which the GI50 in the test with OVCAR-5 ovarian, in the test with SR leukemia, with HL-60(TB) leukemia, with MCF7 breast, in the test with T-47D breast and in the test with PC-3 prostate was more than 1000 µM each time. Besides, the GI50 with HCT-116 colon was more than 1000 µM. Moreover, the TGI in the test on OVCAR-5 ovarian, with SR leukemia, with HL-60(TB) leukemia, with MCF7 breast, in the test on T-47D breast and in the test on PC-3 prostate was more than 1000 µM in each case. Also, the TGI in the test with HCT-116 colon is more than 1000 µM.

`CC(O)c1cccc(NCc2c3ccccc3c(=O)n3c2oc2ccccc23)c1` (stereo not given): the GI50 is 18.3 µM in the test on OVCAR-5 ovarian; 3.39 µM with SR leukemia; more than 100 µM in the test on HL-60(TB) leukemia; more than 100 µM with MCF7 breast; 14.4 µM in the test with T-47D breast; 7.11 µM in the test with PC-3 prostate. The GI50 with HCT-116 colon is 3.13 µM. The TGI with OVCAR-5 ovarian is more than 100 µM; in the test with SR leukemia, 12.1 µM; with HL-60(TB) leukemia, more than 100 µM; with MCF7 breast, more than 100 µM; with T-47D breast, 64.6 µM; in the test on PC-3 prostate it was more than 100 µM. Further, in the test with HCT-116 colon, the TGI worked out at 14.4 µM.

For the compound `O=C1Nc2ccc(C(=O)c3ccco3)cc2/C1=C/c1cc(Cl)c(O)c(Cl)c1`, the GI50 was 8.35 µM with OVCAR-5 ovarian; 3.03 µM with SR leukemia; 6.93 µM with HL-60(TB) leukemia; 6.1 µM in the test on MCF7 breast; 7.17 µM in the test with T-47D breast; 6.52 µM with PC-3 prostate. Also, the GI50 in the test on HCT-116 colon was 1.87 µM. Moreover, the TGI is more than 20 µM with OVCAR-5 ovarian; 18.8 µM with SR leukemia; more than 21.1 µM in the test on HL-60(TB) leukemia; more than 25 µM with MCF7 breast; more than 25 µM in the test on T-47D breast; more than 24.1 µM with PC-3 prostate. The same compound had a TGI with HCT-116 colon of more than 25 µM.

`NNC(=O)/C(=C/c1ccc(Cl)c(Cl)c1)NC(=O)c1ccccc1`: the TGI in the test on OVCAR-5 ovarian, in the test with HL-60(TB) leukemia, in the test with M19-MEL melanoma and with HCT-116 colon was more than 100 µM in each case.

On to `Cc1[nH]c2ccccc2c1C1Cc2ccccc2N1C(=O)/C=C\C(=O)O` (stereo not given), for which the TGI with OVCAR-5 ovarian was more than 100 µM; in the test on SR leukemia, 85.7 µM; in the test with HL-60(TB) leukemia it was 68.2 µM; in the test with M19-MEL melanoma it was more than 100 µM; with HCT-116 colon, more than 100 µM.

Regarding `NC1(C(=O)NC2(C(=O)O)CCCC2)CCCC1` (H-[Ac5c]-[Ac5c]-OH), the TGI in the test on OVCAR-5 ovarian, in the test with SR leukemia, in the test with HL-60(TB) leukemia, with MCF7 breast, in the test with T-47D breast and with PC-3 prostate was more than 100 µM throughout. For the same compound, the TGI in the test with HCT-116 colon was more than 100 µM.

Source of the values: PubChem BioAssay (NCI).
